Experimental data: patent US8030354B2, “Substituted biphenyl GPR40 modulators” (Amgen Inc., priority 2007, dated 2011)
pEC50: −log10 of the molar value.

Tests used:
GPR40 [1] = biological target: T1, GPR40 (Homo sapiens, UniProt O14842); experiment: Cell-based aequorin assay (CHO cells stably expressing GPR40 and aequorin); design: expressed in transfected cells; host or cells: CHO cells stably transfected with GPR40 and aequorin; conditions: activation of human GPR40, CHO cells, 0.01% HSA
Outline: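 CHO cells stably co-expressing GPR40 and aequorin, loaded with coelenterazine (1 ug/mL, 2 h, room temperature) in H/HBSS with 20 mM Hepes and 0.01% fatty acid-free HSA. Serially diluted compounds added; luminescence recorded over 20 s. EC50 from dose-response of maximum relative light units.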

GPR40 [2] = biological target: T1, GPR40; experiment: Inositol phosphate accumulation assay (A9_GPR40 cells); assay type: cell-based; design: expressed in transfected cells; host or cells: CHO cells stably transfected with GPR40 and aequorin; conditions: inositol phosphate assay, A9_GPR40 cells, 1 hour; read-out: IP3 EC50
Outline: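 A9 cells stably expressing GPR40 were labelled 16 h with 1 μCi/mL ^3H-inositol in inositol-free DMEM with dialysed FBS. Compounds in HBSS/10 mM LiCl with HSA were applied for 1 h at 37° C, then quenched with 20 mM formic acid. Accumulated [^3H] inositol phosphates were counted by SPA.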

T1 sequence (O14842 whole entry): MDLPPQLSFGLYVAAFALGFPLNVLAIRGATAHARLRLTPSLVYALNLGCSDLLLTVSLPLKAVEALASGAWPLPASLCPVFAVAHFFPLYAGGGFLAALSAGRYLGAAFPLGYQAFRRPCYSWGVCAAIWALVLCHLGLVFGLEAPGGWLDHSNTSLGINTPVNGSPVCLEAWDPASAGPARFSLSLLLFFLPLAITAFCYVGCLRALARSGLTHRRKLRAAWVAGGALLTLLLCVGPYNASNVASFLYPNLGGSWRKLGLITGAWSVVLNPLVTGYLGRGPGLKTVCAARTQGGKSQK

| SMILES | pEC50 (GPR40 [1]) | pEC50 (GPR40 [2]) |
| --- | --- | --- |
| COc1ccc(F)c(-c2ccc(COc3cccc([C@@H](CC(=O)O)C4CC4)c3)cc2[C@H]2OCCCC2(C)C)c1 (single isomer, unassigned) [Example 66.54] | 6.00 to 7.00 | 7.00 to 8.00 |
| COc1ccc(F)c(-c2ccc(COc3cccc([C@@H](CC(=O)O)C4CC4)c3)cc2[C@H]2CCC[C@@H]2C)c1 (single isomer, unassigned) [Example 66.56] | 6.00 to 7.00 | 7.00 to 8.00 |
| CCC(C)(C)[C@H](OC)c1cc(COc2cccc([C@@H](CC(=O)O)C3CC3)c2)ccc1-c1cc(OC)ccc1F (single isomer, unassigned) [Example 66.62] | 7.00 to 8.00 | > 8.00 |
| COc1ccc(F)c(-c2ccc(COc3cccc([C@@H](CC(=O)O)C4CC4)c3)cc2COC(C)(C)C)c1 (single isomer, unassigned) [Example 66.63, (3S)-3-Cyclopropyl-3-(3-(((2-(((1,1-dimethylethyl)oxy)methyl)-2′-fluoro-5′-(methyloxy)-1,1′-biphenyl-4-yl)methyl)oxy)phenyl)propanoic acid or (3R)-3-cyclopropyl-3-(3-(((2-(((1,1-dimethylethyl)oxy)methyl)-2′-fluoro-5′-(methyloxy)-1,1′-biphenyl-4-yl)methyl)oxy)phenyl)propanoic acid] | 5.00 to 6.00 | 5.00 to 6.00 |
| COc1cc(-c2ccc(COc3cccc(C(CC(=O)O)C4CC4)c3)cc2C2=CCCC2(C)C)ccn1 (single isomer, unassigned) [Example 66.66, (3S)-3-(3-(3-(5,5-Dimethylcyclopent-1-enyl)-4-(2-methoxypyridin-4-yl)benzyloxy)phenyl)-3-cyclopropylpropanoic acid or (3R)-3-(3-(3-(5,5-dimethylcyclopent-1-enyl)-4-(2-methoxypyridin-4-yl)benzyloxy)phenyl)-3-cyclopropylpropanoic acid] | 6.00 to 7.00 | 7.00 to 8.00 |
| C=CC1(c2cc(COc3cccc([C@@H](CC(=O)O)C4CC4)c3)ccc2-c2cc(OC)ncc2F)CCCC1 (single isomer, unassigned) [Example 66.67, (3S)-3-(3-(4-(5-Fluoro-2-methoxypyridin-4-yl)-3-(1-vinylcyclopentyl)benzyloxy)phenyl)-3-cyclopropylpropanoic acid or (3R)-3-(3-(4-(5-fluoro-2-methoxypyridin-4-yl)-3-(1-vinylcyclopentyl)benzyloxy)phenyl)-3-cyclopropylpropanoic acid] | 6.00 to 7.00 | 7.00 to 8.00 |
| COc1ccc(F)c(-c2ccc(COc3cccc([C@@H](CC(=O)O)C4CC4)c3)cc2C2=CCCC2)c1 (single isomer, unassigned) [Example 66.68, (S)-3-[3-(2-Cyclopent-1-enyl-2′-fluoro-5′-methoxy-biphenyl-4-ylmethoxy)-phenyl]-3-cyclopropyl-propionic acid or (R)-3-[3-(2-cyclopent-1-enyl-2′-fluoro-5′-methoxy-biphenyl-4-ylmethoxy)-phenyl]-3-cyclopropyl-propionic acid] | 6.00 to 7.00 | 7.00 to 8.00 |
| COc1ccc(F)c(-c2ccc(COc3cccc([C@@H](CC(=O)O)C4CC4)c3)cc2CN2[C@H](C)CCC[C@H]2C)c1 (single isomer, unassigned) [Example 66.69] | 6.00 to 7.00 | 7.00 to 8.00 |
| COc1ccc(F)c(-c2ccc(COc3cccc(C(CC(=O)O)C4CC4)c3)cc2CN2C(C)CCCC2C)c1 (single isomer, unassigned) [Example 66.70] | 6.00 to 7.00 | 7.00 to 8.00 |
| COc1ccc(F)c(-c2ccc(COc3cccc([C@@H](CC(=O)O)C4CC4)c3)cc2CN2[C@H](C)CC[C@H]2C)c1 (single isomer, unassigned) [Example 66.71, (3S)-3-Cyclopropyl-3-(3-(((2-(((2R,5R)-2,5-dimethyl-1-pyrrolidinyl)methyl)-2′-fluoro-5′-(methyloxy)-1,1′-biphenyl-4-yl)methyl)oxy)phenyl)propanoic acid or (3R)-3-cyclopropyl-3-(3-(((2-(((2R,5R)-2,5-dimethyl-1-pyrrolidinyl)methyl)-2′-fluoro-5′-(methyloxy)-1,1′-biphenyl-4-yl)methyl)oxy)phenyl)propanoic acid] | 6.00 to 7.00 | 6.00 to 7.00 |
| COc1cc(-c2cc(F)c(COc3cccc([C@@H](CC(=O)O)C4CC4)c3)cc2[C@H]2CCCC2(C)C)c(F)cn1 (single isomer, unassigned) [Example 66.77] | 7.00 to 8.00 | > 8.00 |

Now from value to molecule:

| pEC50 (GPR40 [1]) | pEC50 (GPR40 [2]) | SMILES |
| --- | --- | --- |
| 6.00 to 7.00 | 6.00 to 7.00 | CCCC(CC(=O)O)c1cccc(OCc2ccc(-c3cc(OC)ccc3F)c(OC3CCCCCC3)c2)c1 (single isomer, unassigned) [Example 67.2, (3R)-3-(3-(((2-(Cycloheptyloxy)-2′-fluoro-5′-(methyloxy)-1,1′-biphenyl-4-yl)methyl)oxy)phenyl)hexanoic acid or (3S)-3-(3-(((2-(cycloheptyloxy)-2′-fluoro-5′-(methyloxy)-1,1′-biphenyl-4-yl)methyl)oxy)phenyl)hexanoic acid] |
| 6.00 to 7.00 | 7.00 to 8.00 | CCCC(CC(=O)O)c1cccc(OCc2ccc(-c3cc(OC)ccc3F)c(C3=CCCCCC3)c2)c1 (single isomer, unassigned) [Example 67.6, (3R)-3-(3-(((2-(1-Cyclohepten-1-yl)-2′-fluoro-5′-(methyloxy)-1,1′-biphenyl-4-yl)methyl)oxy)phenyl)hexanoic acid or (3S)-3-(3-(((2-(1-cyclohepten-1-yl)-2′-fluoro-5′-(methyloxy)-1,1′-biphenyl-4-yl)methyl)oxy)phenyl)hexanoic acid] |
| 6.00 to 7.00 | 7.00 to 8.00 | CCCC(CC(=O)O)c1cccc(OCc2ccc(-c3cc(OC)ccc3F)c(C3CCCCCC3)c2)c1 (single isomer, unassigned) [Example 67.7, (3R)-3-(3-(((2-Cycloheptyl-2′-fluoro-5′-(methyloxy)-1,1′-biphenyl-4-yl)methyl)oxy)phenyl)hexanoic acid or (3S)-3-(3-(((2-cycloheptyl-2′-fluoro-5′-(methyloxy)-1,1′-biphenyl-4-yl)methyl)oxy)phenyl)hexanoic acid] |
| 6.00 to 7.00 | 7.00 to 8.00 | CCCC(CC(=O)O)c1cccc(OCc2ccc(-c3cc(OC)ccc3F)c(C3CCCCC3)c2)c1 (single isomer, unassigned) [Example 67.8, (3R)-3-(3-(((2-Cyclohexyl-2′-fluoro-5′-(methyloxy)-1,1′-biphenyl-4-yl)methyl)oxy)phenyl)hexanoic acid or (3S)-3-(3-(((2-cyclohexyl-2′-fluoro-5′-(methyloxy)-1,1′-biphenyl-4-yl)methyl)oxy)phenyl)hexanoic acid] |
| 6.00 to 7.00 | 7.00 to 8.00 | CCC[C@H](CC(=O)O)c1cccc(OCc2ccc(-c3cc(OC)ccc3F)c(C3CCCC3(C)C)c2)c1 (single isomer, unassigned) [Example 67.11, (3R)-3-(3-(((2-(2,2-Dimethylcyclopentyl)-2′-fluoro-5′-(methyloxy)-1,1′-biphenyl-4-yl)methyl)oxy)phenyl)hexanoic acid or (3S)-3-(3-(((2-(2,2-dimethylcyclopentyl)-2′-fluoro-5′-(methyloxy)-1,1′-biphenyl-4-yl)methyl)oxy)phenyl)hexanoic acid] |
